Reference: paper PMC10661964 (Current Drug Metabolism, 2023)
Values joined by “and” are separate entries in the source; they are usually repeats but may differ in a detail not shown here. Equal values may be shown once. Read-outs that look alike come from different tables or passages of the source.

Tests used:
[1] = Protocol: One aliquot of a pooled urine sample taken at 0.25 h post-dose was analyzed immediately using HPLC-LSC. Further aliquots were analyzed after storage for 24 h at room temperature. […] After incubation for 22.5 h at 37°C with shaking, incubations were terminated by the addition of acetonitrile, then extracted (three times with 2 mL acetonitrile for 30 min) and centrifuged (1726 g, 3 min). The combined supernatant was analyzed directly using HPLC-LSC.
[2] = Plasma PK of total radioactivity, [14C]-nifurtimox and metabolites after oral dosing (HPLC-LSC); format: in vivo; conditions: male Wistar rats
Protocol: (§1) Animals were housed in suitable metabolism cages. […] Blood cells and plasma were separated by centrifugation. Plasma was stored at ≤-15°C prior to analysis. […] All biological samples were weighed immediately. […] The remaining carcass was also wet-weighed.
Aliquots of individual plasma samples were pooled separately for each timepoint by equal volume. For protein precipitation, pooled plasma was treated with a three-fold volume of acetonitrile. Samples were homogenized and precipitated by centrifugation (20,000 g, 5 min). Samples were concentrated and analyzed using high-performance liquid chromatography (HPLC) with off-line radioactivity detection by LSC (HPLC-LSC).

[3] = rats, assuming oral bioavailability of 90% and fu 62.1%
[4] = Quantification of nifurtimox and metabolites in rat plasma after a single high dose (200 mg/kg); format: in vivo, Wistar rats; conditions: Wistar, rat, plasma, po, 200 mg/kg
Protocol: Blood cells and plasma were then separated by centrifugation, and the plasma was stored at ≤-15°C until required. For analysis, plasma samples were thawed at room temperature and homogenized by vortex mixing. Plasma samples were pooled separately for male and female rats by combining 25 µL from each of the 4 animals for each timepoint. […] To each pooled plasma (100 µL), calibration, or control sample, 300 µL of an internal standard solution containing [^2H8]-nifurtimox (500 ng/mL) and [^2H3]-M-6 (2500 ng/mL) in acetonitrile + 0.5% formic acid in water (v/v) was added and mixed thoroughly. All samples were then centrifuged (20,000 g, 5 min) to precipitate the protein. The supernatant was analyzed using a 1290 Infinity LC system equipped with a diode array detector and an Orbitrap Q-Exactive Plus HRMS (Thermo Fisher Scientific, Bremen, Germany) with a heated electrospray ionization source. […] The mobile phase gradient was: 0 min, 0% B; 2.5 min, 0% B; 3 min, 20% B; 8 min, 45% B; 9 min, 90% B; 10.1 min, 90% B; 12 min, 0% B; 13 min, 0% B. The following HRMS parameters were used: mass range, 120-200 Da (0-2.5 min) and 230-600 Da (2.5-13 min) in full scan mode; resolution, 280,000; ion source voltage, 3500 V; capillary temperature, 300°C; source temperature, 60°C.
The calibration was based on the relative peak area as a function of concentration obtained by linear regression. […] Thus, all concentrations in μg/mL were back-calculated to nmol/mL. The PK parameters for each analyte were calculated using ToxKin software, as described above.

[5] = Stability study: metabolite profiles in snap-frozen plasma and urine at early timepoints after oral [14C]-nifurtimox; format: in vivo, male Wistar rats; conditions: for share of sample radioactivity in plasma / share of sample radioactivity in urine: oral 2.5 mg/kg, snap-frozen
Protocol: as §1
The combined supernatant was analyzed directly using HPLC-LSC.

[6] = humans, dogs, and rats, oral administration; cited from earlier work
[7] = cited from earlier work
[8] = within 2-3 days of oral or i.v. dosing in rats and dogs; cited from earlier work
[9] = Mass balance and metabolite profiling in excreta after i.v. [14C]-nifurtimox in bile duct-cannulated (BDC) rats; format: in vivo, male Wistar rats; conditions: for component excreted in bile, i.v. dosing / administered dose secreted directly into the gut / dose excreted in feces / dose present in the gastrointestinal tract including contents: 2.5 mg/kg; for administered dose secreted directly into the gut: gastrointestinal tract + feces
Protocol: as §1

[10] = in vitro; conditions: rat, plasma
[11] = human, estimation accounting for GFR, fu (57.6%), and AUC
[12] = Mass balance and metabolite profiling in excreta after oral [14C]-nifurtimox in intact rats; conditions: for component excreted in urine, oral dosing: intact male Wistar rats, 2.5 mg/kg oral; for component excreted in urine, oral dosing / radioactivity excreted in urine / radioactivity excreted in feces: up to 120 h, 2.5 mg/kg
[13] = rat, in vivo, 2.5 mg/kg
[14] = single oral 2.5 mg/kg [14C]-nifurtimox, pooled plasma
[15] = oral, Medenwald et al. and seven healthy volunteers
[16] = BDC male Wistar rats, 2.5 mg/kg i.v., up to 24 h
[17] = total radioactivity, i.v. 2.5 mg/kg, BDC rats
[18] = total radioactivity, i.v. 2.5 mg/kg, BDC rats, 24 h
[19] = total radioactivity, i.v. 2.5 mg/kg, BDC rats, 24 h, listed as [^14C]-nifurtimox
[20] = total radioactivity, i.v. 2.5 mg/kg, BDC rats, 24 h, listed as [14C]-nifurtimox
[21] = total radioactivity, oral 2.5 mg/kg, intact rats
[22] = total radioactivity, oral 2.5 mg/kg, intact rats, listed as [^14C]-nifurtimox

Compound: CC1CS(=O)(=O)CCN1/N=C/c1ccc([N+](=O)[O-])o1 (centres unmarked) [Nifurtimox, (E)-N-(3-methyl-1,1-dioxo-1,4-thiazinan-4-yl)-1-(5-nitrofuran-2-yl) methanimine, reference compound]
- stability in aqueous control without feces ([1]; 8.8 µM, 37°C, 22.5 h, anaerobic, data not shown): no degradation
- stability in rat feces ([1]; 8.8 µM, aqueous suspension of fresh rat feces, 37°C, 22.5 h, anaerobic): unstable in rat feces
- stability in rat urine ([1]; pooled 0.25 h post-dose urine reanalyzed after storage at room temperature for 24 h): undetectable
- t½ ([2]; single oral 2.5 mg/kg [14C]-nifurtimox, plasma, interval up to 8 h, 2.5 mg/kg): 1.44 h
- AUC [2, 14]: 1730 µg-eq*h/L
- AUC(0-8) [2, 14]: 1680 µg-eq*h/L
- AUC(0-tn) [2, 14]: 1570 µg-eq*h/L
- Cmax [2, 14]: 755 µg-eq/L
- tn (time of last quantifiable concentration) [2, 14]: 5 h
- half-life ([2]; male, Wistar, rat, plasma, po, 2.5 mg/kg, single oral 2.5 mg/kg [14C]-nifurtimox, plasma, interval up to 8 h, read-out: t½ (converted)): 84 min
- Tmax ([2]; rat, single oral 2.5 mg/kg [14C]-nifurtimox, pooled plasma): 30 min
- tmax of radioactivity ([2]; total radioactivity, oral 2.5 mg/kg): 30 min
- theoretical excretion based on glomerular filtration rate [3]: 23 % of the dose
- AUC(0-t) ([4]; female, read-out: AUC(0–24), female animals): 117 µM·h
- AUC ([4]; female, read-out: AUC, female animals): 121 µM·h
- Cmax ([4]; female, read-out: Cmax, female animals): 18.3 µM
- Tmax ([4]; female, read-out: tmax, female animals): 1 h
- half-life ([4]; female, read-out: t½, female animals (converted)): 300 min
- AUC(0-t) ([4]; male, read-out: AUC(0–24), male animals): 138 µM·h
- AUC ([4]; male, read-out: AUC, male animals): 184 µM·h
- Cmax ([4]; male, read-out: Cmax, male animals): 10.1 µM
- Tmax ([4]; male, read-out: tmax, male animals): 2 h
- half-life ([4]; male, read-out: t½, male animals (converted)): 300 min
- share of sample radioactivity in plasma ([5]; 0.25 h post-dose): 81.5 % of sample radioactivity
- share of sample radioactivity in urine ([5]; 0.25 h post-dose): 11 % of sample radioactivity
- share of sample radioactivity in plasma ([5]; 0.5 h post-dose): 72.5 % of sample radioactivity
- share of sample radioactivity in urine ([5]; 0.5 h post-dose): 4 % of sample radioactivity
- stability in plasma ([5]; authors' conclusion from plasma profiles): appears to be stable in plasma
- unlabeled nifurtimox excreted in urine [6]: no more than 0.5 % of the administered dose
- tmax, patients who had eaten before dosing ([7]; Phase 1 food-effect PK study): 4 h
- Tmax [7, 15]: 2 to 3 h
- average elimination half-life (t½) [7, 15]: approximately 3 hours
- AUC greater in fed compared to fasting patients ([7]; same nifurtimox dose, Phase 1 food-effect study): 70%
- administered radioactivity detected in urine [8]: 40-50%
- component excreted in urine, i.v. dosing [9, 16]: 0.847 % of the administered dose
- component excreted in bile, i.v. dosing [9, 16]: 0.560 % of the administered dose
- component excreted in bile, i.v. dosing ([9]; BDC male Wistar rats, 2.5 mg/kg i.v., up to 24 h, listed as nifurtimox): 0.6 % of the administered dose
- administered dose excreted in bile within 24 h [9, 17]: 17.7%
- administered dose excreted in urine within 24 h [9, 17]: 49.6%
- recovery of administered radioactivity at 24 h [9, 17]: 94.2%
- dose in residues (body excluding the GIT) [9, 18]: 17.6%
- dose in the cage wash [9, 18]: 2.48%
- administered dose secreted directly into the gut [9, 18]: < 7%
- administered dose secreted directly into the gut [9, 19]: 6.9%
- dose excreted in feces [9, 20]: 2.45%
- dose present in the gastrointestinal tract including contents [9, 20]: 4.45%
- dose excreted in feces [9, 19]: 2.5%
- dose present in the gastrointestinal tract including contents [9, 19]: 4.5%
- fraction unbound [10]: 0.621
- dose expected to be excreted unchanged in urine [11]: approximately 10%
- component excreted in urine, oral dosing [12]: 0.117 % of the administered dose
- component excreted in urine, oral dosing ([12]; listed as [^14C]-nifurtimox): 0.1 % of the administered dose
- component excreted in urine, oral dosing ([12]; listed as nifurtimox): < 1 % of the administered dose
- share of sample radioactivity in urine ([12]; pooled urine 0-8 h post-dose, oral 2.5 mg/kg): 0.3 % of sample radioactivity
- total recovery including excreta, residues, and cage wash ([12]; total radioactivity, 120 h after oral dosing): 97.3%
- administered radioactivity excreted within 24 h [12, 21]: approximately 86%
- radioactivity excreted within 120 h (urine + feces) [12, 21]: 92.4 % of dose
- radioactivity excreted in urine [12, 21]: 48.6 % of dose
- radioactivity excreted in feces ([12]; total radioactivity, oral 2.5 mg/kg, intact rats, listed as [14C]-nifurtimox): 43.8 % of dose
- radioactivity excreted in feces [12, 22]: 43.8 % of dose and 49 % of dose
- radioactivity excreted in urine [12, 22]: 48.6 % of dose and 44 % of dose
- component excreted in feces, oral dosing [13]: No unchanged drug was detected
